The text below walks through data of ChEMBL document CHEMBL2429763, “Nonbenzamidine acylsulfonamide tissue factor-factor VIIa inhibitors” (Bioorg Med Chem Lett, 2013).

Active and inactive are the calls of the source. No cut-off for these calls is given here.

For orientation: Ki means the equilibrium dissociation constant of an inhibitor or competing ligand from its target. The term bioavailability denotes dose-corrected exposure relative to a reference, in per cent. Usually half-life stands for the time in which the quantity being followed falls by half. Lower therefore signals fast loss. As a reminder, the clearance is the volume of plasma or blood freed of the substance per unit of time. Read a high clearance as efficient removal. What is called pKa is the negative logarithm of the acid dissociation constant. A higher pKa goes with a weaker acid or stronger base.

Series [1] can be described thus: Anticoagulant activity in plasma (unknown origin) assessed as concentration required to double prothrombin time. It counts as functional, unidentified.
Series [2] concerns the target T1, Coagulation factor VII/tissue factor (Homo sapiens) (UniProt P08709+P13726). Kind of series: Noncompetitive inhibition of human recombinant soluble tissue factor-factor 7a using physiological substrate. It counts as protein-complex assay.
The target of series [3] is T1, Coagulation factor VII/tissue factor (Homo sapiens). Kind of series: Competitive inhibition of human recombinant soluble tissue factor-factor 7a using tripeptide as substrate. It counts as protein-complex assay.
In series [4] the target is Coagulation factor VII/tissue factor (Homo sapiens, UniProt P08709). Kind of series: Inhibition of human recombinant soluble tissue factor-factor 7a using H-D-Ile-Pro-Arg-pNA as substrate. It counts as protein-complex assay.
Chain of Coagulation factor VII/tissue factor (P08709 61-212 limits assumed): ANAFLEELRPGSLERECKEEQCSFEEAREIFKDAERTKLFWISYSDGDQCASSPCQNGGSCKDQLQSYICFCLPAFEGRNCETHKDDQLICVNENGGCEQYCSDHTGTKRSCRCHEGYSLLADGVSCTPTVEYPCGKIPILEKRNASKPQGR
Chain of Coagulation factor VII/tissue factor (P08709 213-466 limits assumed): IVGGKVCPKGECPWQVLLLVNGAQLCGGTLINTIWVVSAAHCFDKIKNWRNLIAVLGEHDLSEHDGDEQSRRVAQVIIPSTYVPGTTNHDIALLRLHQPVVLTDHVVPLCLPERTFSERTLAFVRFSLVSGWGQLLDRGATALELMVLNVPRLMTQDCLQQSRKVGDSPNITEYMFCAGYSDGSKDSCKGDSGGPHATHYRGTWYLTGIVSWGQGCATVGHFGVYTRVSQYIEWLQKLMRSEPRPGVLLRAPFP
Chain of Coagulation factor VII/tissue factor (P13726 33-295 partner limits assumed): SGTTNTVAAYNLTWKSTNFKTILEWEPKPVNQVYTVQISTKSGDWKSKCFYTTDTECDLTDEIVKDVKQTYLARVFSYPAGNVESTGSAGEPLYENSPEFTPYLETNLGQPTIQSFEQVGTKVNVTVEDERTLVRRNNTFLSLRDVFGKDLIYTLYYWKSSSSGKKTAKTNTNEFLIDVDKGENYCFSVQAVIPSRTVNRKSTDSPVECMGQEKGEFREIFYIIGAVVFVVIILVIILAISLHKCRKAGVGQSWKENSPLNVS
For a further series, the target named is Trypsin (Homo sapiens, UniProt P07477+P07478+P35030). Briefly: Inhibition of trypsin (unknown origin). It counts as protein assay.
A further series deals with Prothrombin (Homo sapiens, UniProt P00734). Briefly: Inhibition of thrombin (unknown origin).
The target of another series is Coagulation factor X (Homo sapiens, UniProt P00742). Kind of series: Inhibition of factor 10a (unknown origin).
Chain of Coagulation factor X (P00742 41-179 limits assumed): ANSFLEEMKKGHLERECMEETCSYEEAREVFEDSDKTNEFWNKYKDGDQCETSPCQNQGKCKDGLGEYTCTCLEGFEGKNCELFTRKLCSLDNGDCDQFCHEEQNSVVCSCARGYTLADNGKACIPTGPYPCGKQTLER
Chain of Coagulation factor X (P00742 235-488 limits assumed): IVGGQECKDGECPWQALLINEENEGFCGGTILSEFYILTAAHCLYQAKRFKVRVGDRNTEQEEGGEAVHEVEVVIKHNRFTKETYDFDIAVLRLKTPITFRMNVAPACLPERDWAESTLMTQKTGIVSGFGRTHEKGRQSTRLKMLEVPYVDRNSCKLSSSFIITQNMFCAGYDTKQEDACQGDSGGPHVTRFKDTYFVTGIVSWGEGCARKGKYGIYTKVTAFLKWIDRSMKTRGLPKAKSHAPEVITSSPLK
A short description of series [5]: Oral bioavailability in dog at 0.5 mg/kg. It counts as ADME, organism-based, Canis lupus familiaris. Conditions: in vivo.
Series [6] is described as follows: Volume of distribution at steady state in dog at 0.2 mg/kg, iv. It counts as ADME, organism-based, Canis lupus familiaris. Details: dose 0.2 mg/kg, route intravenous. The note with it: in vivo, read-out: Vdss.
The nature of series [7]: Half life in dog at 0.2 mg/kg, iv. It counts as ADME, organism-based, Canis lupus familiaris. Details: dose 0.2 mg/kg, route intravenous. The note with it: in vivo.
The nature of series [8]: Clearance in dog at 0.2 mg/kg, iv. The note with it: in vivo. Further details: dose 0.2 mg/kg, route intravenous. It counts as ADME, organism-based, Canis lupus familiaris.
The nature of series [9]: Dissociation constant, pKa of the compound. It counts as physicochemical.

With `CCOc1cc(C(Nc2ccc(C(=N)N)cc2)C(=O)NS(=O)(=O)c2ccccc2)ccc1OC(C)C` (centres undefined), the 2PT in series [1] is 4 µM. Moreover, the inhibition result in series [2] and in [3] was “Active” in each case. In series [4], the Ki stood at 1.3 nM.
`CCOc1cc([C@@H](Nc2ccc3cnccc3c2)C(=O)NS(=O)(=O)c2cccc(S(N)(=O)=O)c2)ccc1OC(C)C`: the Ki on Trypsin was more than 5 µM; on Prothrombin it was more than 13 µM; at Coagulation factor X it was more than 8 µM; in [4] it was 17 nM.
For the compound `CCOc1cc(C(Nc2ccc3c(N)nccc3c2)C(=O)NS(=O)(=O)c2ccc(O)cc2)ccc1OC(C)C` (centres undefined), the Ki is more than 5 µM at Trypsin, more than 13 µM on Prothrombin, more than 8 µM on Coagulation factor X and 7 nM in series [4].
In the case of `CCOc1cc(C(Nc2ccc3c(N)nccc3c2)C(=O)NS(=O)(=O)c2cccc(S(N)(=O)=O)c2)ccc1OC(C)C` (centres undefined), the Ki on Trypsin is more than 5 µM; on Prothrombin, more than 13 µM; at Coagulation factor X, 5.9 µM; in series [4], 10 nM.
For `CCOc1cc(C(Nc2ccc3cnccc3c2)C(=O)NS(=O)(=O)c2cccc(S(=O)(=O)N(C)C)c2)ccc1OC(C)C` (centres undefined), in that order: more than 5 µM, more than 13 µM, 7.2 µM and 780 nM.
The compound `CCOc1cc([C@@H](Nc2ccc3c(N)nccc3c2)C(=O)NS(=O)(=O)c2ccccc2)ccc1OC(C)C` yielded a bioavailability in series [5] of 4%. Further, in [6], the Vd turned out to be 1.5 L/kg. Besides, the half-life in series [7] is 90 min. This compound also displayed a clearance in series [8] of 24 mL/min/kg. Besides, the Ki was more than 5 µM at Trypsin, 6.9 µM on Prothrombin and 7.3 µM on Coagulation factor X. Further, the 2PT in series [1] turned out to be 36 µM.
As to `CCOc1cc(C(Nc2ccc3c(N)n[nH]c3c2)C(=O)NS(=O)(=O)c2ccccc2)ccc1OC(C)C` (centres undefined), the Ki in series [4] came to 2900 nM.
In the case of `CCOc1cc(C(Nc2ccc3c(N)nccc3c2)C(=O)NS(=O)(=O)c2ccc(N)cc2)ccc1OC(C)C` (centres undefined), the Ki at Trypsin was more than 5 µM; on Prothrombin it was 7.4 µM; on Coagulation factor X, 5.8 µM; in series [4] it was 9 nM.
Regarding `CCOc1cc(C(Nc2ccc3cnccc3c2)C(=O)NS(=O)(=O)c2ccc(S(C)(=O)=O)cc2)ccc1OC(C)C` (centres undefined), the Ki at Trypsin was more than 5 µM; on Prothrombin, more than 13 µM; at Coagulation factor X it was more than 8 µM; in series [4], 8100 nM.
For `CCOc1cc(C(Nc2ccc3cnccc3c2)C(=O)NS(=O)(=O)c2cccc(S(N)(=O)=O)c2)ccc1OC(C)C` (centres undefined) the same measures were more than 5 µM, more than 13 µM, more than 8 µM and 32 nM.
On to `CCOc1cc(C(Nc2ccc3cnccc3c2)C(=O)NS(=O)(=O)c2ccccc2S(C)(=O)=O)ccc1OC(C)C` (centres undefined), for which the Ki at Trypsin was more than 5 µM; on Prothrombin, 10.3 µM; on Coagulation factor X it was more than 8 µM; in series [4], 12 nM. In series [1], the 2PT turned out to be 76 µM.
Regarding `CCOc1cc(C(Nc2ccc3c(N)noc3c2)C(=O)NS(=O)(=O)c2ccccc2)ccc1OC(C)C` (centres undefined), the Ki in series [4] stood at 1940 nM.
On to `CCOc1cc(C(Nc2ccc3c(N)nccc3c2)C(=O)NS(=O)(=O)c2cccc(C(N)=O)c2)ccc1OC(C)C` (centres undefined), for which the Ki was more than 5 µM on Trypsin, more than 13 µM on Prothrombin, more than 8 µM on Coagulation factor X and 18 nM in series [4].
On to `CCOc1cc(C(Nc2ccc3c(N)nccc3c2)C(=O)NS(=O)(=O)c2ccccc2)ccc1OC(C)C` (centres undefined), for which the Ki on Trypsin was determined as 4.7 µM; on Prothrombin, 4.3 µM; at Coagulation factor X, 3.5 µM. In addition, the inhibition result in series [2] and in series [3] was “Active” in each case. In series [9], this compound had a pKa of 8.9.
As for `CCOc1cc(C(Nc2ccc3c(N)nccc3c2)C(=O)NS(=O)(=O)c2cccc(N)c2)ccc1OC(C)C` (centres undefined), the Ki at Trypsin is more than 5 µM; on Prothrombin it was more than 13 µM; at Coagulation factor X, more than 8 µM; in [4] it was 48 nM.
For `CCOc1cc(C(Nc2ccc3cnccc3c2)C(=O)NS(=O)(=O)c2ccccc2S(=O)(=O)CC)ccc1OC(C)C` (centres undefined), the inhibitory constant (Ki) at Trypsin is more than 5 µM; on Prothrombin it was 9.4 µM; on Coagulation factor X, more than 8 µM; in series [4] it was 6 nM.
For `CCOc1cc(C(Nc2ccc3cnccc3c2)C(=O)NS(=O)(=O)c2ccccc2S(N)(=O)=O)ccc1OC(C)C` (centres undefined), in that order: more than 5 µM, more than 13 µM, more than 8 µM and 73 nM.
For `CCOc1cc(C(Nc2ccc3c(N)nccc3c2)C(=O)NS(=O)(=O)c2cccc(CO)c2)ccc1OC(C)C` (centres undefined) the same measures were more than 5 µM, 11 µM, more than 8 µM and 28 nM.
For the compound `CCOc1cc(C(Nc2ccc3cnccc3c2)C(=O)NS(=O)(=O)c2cccc(S(C)(=O)=O)c2)ccc1OC(C)C` (centres undefined), the Ki at Trypsin was more than 5 µM; at Prothrombin, more than 13 µM; at Coagulation factor X it was more than 8 µM; in series [4], 145 nM.
For `CCOc1cc(C(Nc2ccc3cnccc3c2)C(=O)NS(=O)(=O)c2ccc(S(N)(=O)=O)cc2)ccc1OC(C)C` (centres undefined), in that order: more than 5 µM, more than 13 µM, more than 8 µM and 320 nM.
For `CCOc1cc(C(Nc2ccc3cnccc3c2)C(=O)NS(=O)(=O)c2cccc(S(=O)(=O)NC)c2)ccc1OC(C)C` (centres undefined) the same measures were more than 5 µM, more than 13 µM, 7 µM and 250 nM.
As to `CCOc1cc(C(Nc2ccc3cnccc3c2)C(=O)NS(=O)(=O)c2ccccc2)ccc1OC(C)C` (centres undefined), the Ki on Trypsin is more than 5 µM; at Prothrombin, more than 13 µM; at Coagulation factor X, 5.4 µM; in series [4], 70 nM. Besides, the inhibition entry in [2] and in [3] was “Active” each time. The compound also showed a pKa in series [9] of 7.8.
Turning to `CCOc1cc([C@@H](Nc2ccc3c(N)nccc3c2)C(=O)NS(=O)(=O)c2cccc(S(N)(=O)=O)c2)ccc1OC(C)C`, the Ki is more than 5 µM on Trypsin, 9.4 µM at Prothrombin, 5.6 µM on Coagulation factor X and 2.8 nM in [4]. Further, the 2PT in series [1] amounted to 14 µM.
With `CCOc1cc(C(Nc2ccc3c(N)nccc3c2)C(=O)NS(=O)(=O)c2ccc(C)cc2)ccc1OC(C)C` (centres undefined), the Ki turned out to be 3.04 µM at Trypsin, 2.9 µM at Prothrombin, 3.05 µM on Coagulation factor X and 197 nM in series [4].
Take `CCOc1cc(C(Nc2ccc3c(N)nccc3c2)C(=O)NS(=O)(=O)c2cccc(O)c2)ccc1OC(C)C` (centres undefined): the Ki was more than 5 µM on Trypsin, 11 µM on Prothrombin, 5.5 µM on Coagulation factor X and 26 nM in series [4].
As for `CCOc1cc([C@H](Nc2ccc3c(N)nccc3c2)C(=O)NS(=O)(=O)c2ccccc2)ccc1OC(C)C`, the Ki on Trypsin is more than 5 µM; on Prothrombin it was more than 13 µM; at Coagulation factor X, 8.2 µM.
In the case of `CCOc1cc([C@@H](Nc2ccc3cnccc3c2)C(=O)NS(=O)(=O)c2ccccc2)ccc1OC(C)C`, the bioavailability in [5] was 36%. In addition, the Vd in series [6] came out at 0.6 L/kg. This compound gave a half-life in [7] of 54 min. Also, the clearance in series [8] was 9.3 mL/min/kg. Besides, the Ki on Trypsin was more than 5 µM; at Prothrombin, more than 13 µM; on Coagulation factor X, more than 8 µM; in series [4], 44 nM. Further, the 2PT in [1] is more than 80 µM.
With `CCOc1cc(C(Nc2ccc3c(N)ncnc3c2)C(=O)NS(=O)(=O)c2ccccc2)ccc1OC(C)C` (centres undefined), the Ki in [4] turned out to be 390 nM.
For `CCOc1cc(C(Nc2ccc3nc(N)[nH]c3c2)C(=O)NS(=O)(=O)c2ccccc2)ccc1OC(C)C` (centres undefined), the Ki in series [4] is 670 nM.
